In brackets after ≈: the same amount, converted by molar mass.
The molecules below were run on Escherichia coli (assay: Antibacterial activity against Escherichia coli NIHJ JC-2 assessed as bacterial growth inhibition).
Type: functional

| Compound | MIC |
| --- | --- |
| O=C(O)c1cn(C2CC2)c2c(F)c(N3CCNCC3)c3nc[nH]c3c2c1=O | 0.025 µg/mL (≈ 0.0673 µM) |
| CN1CCN(c2c(F)c3c(c(=O)c(C(=O)O)cn3C3CC3)c3[nH]cnc23)CC1 | 0.025 µg/mL (≈ 0.0649 µM) |
| CN1CCN(c2c(F)c3c(c(=O)c(C(=O)O)cn3C3CC3)c3[nH]nnc23)CC1 | 0.025 µg/mL (≈ 0.0647 µM) |
| NC1CCN(c2c(F)c3c(c(=O)c(C(=O)O)cn3C3CC3)c3[nH]cnc23)C1 (stereo not drawn) | 0.025 µg/mL (≈ 0.0673 µM) |
| C[C@@H]1CN(c2c(F)c(N)c3c(=O)c(C(=O)O)cn(C4CC4)c3c2F)C[C@H](C)N1 [SPARFLOXACIN] | 0.0125 µg/mL (≈ 0.0319 µM) |
| O=C(O)c1cn(C2CC2)c2c(F)c(N3CCNCC3)c3nn[nH]c3c2c1=O | 0.025 µg/mL (≈ 0.0671 µM) |
| CN1CCN(c2cc3c(c(=O)c(C(=O)O)cn3C3CC3)c3[nH]cnc23)CC1 | 0.025 µg/mL (≈ 0.068 µM) |
| O=C(O)c1cn(C2CC2)c2c(Cl)c(N3CCNCC3)c3nc[nH]c3c2c1=O | 0.025 µg/mL (≈ 0.0645 µM) |
| CN1CCN(c2cc3c(c(=O)c(C(=O)O)cn3C3CC3)c3[nH]nnc23)CC1 | 0.025 µg/mL (≈ 0.0679 µM) |
| CN1CCN(c2c(Cl)c3c(c(=O)c(C(=O)O)cn3C3CC3)c3[nH]cnc23)CC1 | 0.025 µg/mL (≈ 0.0622 µM) |
| NC1CCN(c2c(F)c3c(c(=O)c(C(=O)O)cn3C3CC3)c3[nH]nnc23)C1 (stereo not drawn) | 0.025 µg/mL (≈ 0.0671 µM) |

More lines, now with the values ahead:

| MIC | Compound |
| --- | --- |
| 0.025 µg/mL (≈ 0.0647 µM) | NCC1CCN(c2c(F)c3c(c(=O)c(C(=O)O)cn3C3CC3)c3[nH]nnc23)C1 (stereo not drawn) |
| 0.025 µg/mL (≈ 0.068 µM) | NCC1CCN(c2cc3c(c(=O)c(C(=O)O)cn3C3CC3)c3[nH]cnc23)C1 (stereo not drawn) |
| 0.025 µg/mL (≈ 0.0649 µM) | NCC1CCN(c2c(F)c3c(c(=O)c(C(=O)O)cn3C3CC3)c3[nH]cnc23)C1 (stereo not drawn) |
| 0.025 µg/mL (≈ 0.0707 µM) | NC1CCN(c2cc3c(c(=O)c(C(=O)O)cn3C3CC3)c3[nH]cnc23)C1 (stereo not drawn) |
| 0.025 µg/mL (≈ 0.0643 µM) | NC1CCN(c2c(Cl)c3c(c(=O)c(C(=O)O)cn3C3CC3)c3[nH]nnc23)C1 (stereo not drawn) |
| 0.025 µg/mL (≈ 0.0645 µM) | NC1CCN(c2c(Cl)c3c(c(=O)c(C(=O)O)cn3C3CC3)c3[nH]cnc23)C1 (stereo not drawn) |
| 0.025 µg/mL (≈ 0.0707 µM) | O=C(O)c1cn(C2CC2)c2cc(N3CCNCC3)c3nc[nH]c3c2c1=O |
| 0.025 µg/mL (≈ 0.0621 µM) | CN1CCN(c2c(Cl)c3c(c(=O)c(C(=O)O)cn3C3CC3)c3[nH]nnc23)CC1 |

Each molecule was assayed on Escherichia coli (assay: Antibacterial activity against Escherichia coli NCDC 134 assessed as bacterial growth inhibition).
Type: functional

| Compound | MIC |
| --- | --- |
| COc1ccc(/C=N/NC(=O)c2cn(C3CC3)c3cc(N4CCNCC4)c(F)cc3c2=O)cc1 | > 64 µg/mL |
| Cc1ccc2nc(NC(=O)CN3CCN(c4cc5c(cc4F)c(=O)c(C(=O)O)cn5C4CC4)CC3)sc2c1 | 6 µg/mL (≈ 11.2 µM) |
| COc1cc(/C=N/NC(=O)c2cn(C3CC3)c3cc(N/N=C/c4cc(OC)c(OC)c(OC)c4)c(F)cc3c2=O)cc(OC)c1OC | > 64 µg/mL |
| COc1ccc(/C=N/NC(=O)c2cn(C3CC3)c3cc(N/N=C/c4ccc(OC)c(O)c4)c(F)cc3c2=O)cc1O | > 64 µg/mL |
| COc1ccc(/C=N/NC(=O)c2cn(C3CC3)c3cc(N/N=C/c4ccc(OC)cc4)c(F)cc3c2=O)cc1 | > 64 µg/mL |
| O=C(CN1CCN(c2cc3c(cc2F)c(=O)c(C(=O)O)cn3C2CC2)CC1)Nc1nc2ccc(F)cc2s1 | 6 µg/mL (≈ 11.1 µM) |
| COc1c(N2CCN(CC(=O)Nc3nc4c(Cl)ccc(Cl)c4s3)C(C)C2)c(F)cc2c(=O)c(C(=O)O)cn(C3CC3)c12 (stereo not drawn) | 6 µg/mL (≈ 9.46 µM) |
| O=C(N/N=C/c1ccc(F)cc1)c1cn(C2CC2)c2cc(N/N=C/c3ccc(F)cc3)c(F)cc2c1=O | > 64 µg/mL |
| O=C(N/N=C/c1ccccc1)c1cn(C2CC2)c2cc(N3CCNCC3)c(F)cc2c1=O | > 64 µg/mL |
| CN(C)Cc1cn(-c2cc3c(cc2F)c(=O)c(C(=O)NO)cn3C2CC2)nn1 | > 64 µg/mL |
| CCn1cc(C(=O)O)c(=O)c2cc(F)c(N3CCN(CC(=O)Nc4nc5ccc(C)cc5s4)CC3)cc21 | 6 µg/mL (≈ 11.5 µM) |
| O=C(CN1CCN(c2cc3c(cc2F)c(=O)c(C(=O)O)cn3C2CC2)CC1)Nc1nc2c(Cl)ccc(Cl)c2s1 | 6 µg/mL (≈ 10.2 µM) |
| CC(C)NCc1cn(-c2cc3c(cc2F)c(=O)c(C(=O)NO)cn3C2CC2)nn1 | > 64 µg/mL |
| CCCN(CCC)Cc1cn(-c2cc3c(cc2F)c(=O)c(C(=O)NO)cn3C2CC2)nn1 | > 64 µg/mL |
| O=C(NO)c1cn(C2CC2)c2cc(-n3cc(CN4CCOCC4)nn3)c(F)cc2c1=O | > 64 µg/mL |
| COc1c(N2CCN(CC(=O)Nc3nc4ccc([N+](=O)[O-])cc4s3)C(C)C2)c(F)cc2c(=O)c(C(=O)O)cn(C3CC3)c12 (stereo not drawn) | 6 µg/mL (≈ 9.83 µM) |
| O=C(N/N=C/c1ccc2c(c1)OCO2)c1cn(C2CC2)c2cc(N/N=C/c3ccc4c(c3)OCO4)c(F)cc2c1=O | > 64 µg/mL |
| O=C(N/N=C/c1ccc(F)cc1)c1cn(C2CC2)c2cc(N3CCNCC3)c(F)cc2c1=O | > 64 µg/mL |
| O=C(NO)c1cn(C2CC2)c2cc(-n3cc(CN4CCNCC4)nn3)c(F)cc2c1=O | > 64 µg/mL |
| O=C(CN1CCN(c2cc3c(cc2F)c(=O)c(C(=O)O)cn3C2CC2)CC1)Nc1nc2ccc([N+](=O)[O-])cc2s1 | 6 µg/mL (≈ 10.6 µM) |
| COc1c(N2CCN(CC(=O)Nc3nc4ccc(C)cc4s3)C(C)C2)c(F)cc2c(=O)c(C(=O)O)cn(C3CC3)c12 (stereo not drawn) | 6 µg/mL (≈ 10.4 µM) |
| O=C(N/N=C/c1ccc([N+](=O)[O-])cc1)c1cn(C2CC2)c2cc(N/N=C/c3ccc([N+](=O)[O-])cc3)c(F)cc2c1=O | > 64 µg/mL |
| COc1ccc(/C=N/NC(=O)c2cn(C3CC3)c3cc(N4CCNCC4)c(F)cc3c2=O)cc1O | > 64 µg/mL |
| O=C(CN1CCN(c2cc3c(cc2F)c(=O)c(C(=O)O)cn3C2CC2)CC1)Nc1nc2ccc(Cl)cc2s1 | 6 µg/mL (≈ 10.8 µM) |
| O=C(N/N=C/c1ccccc1O)c1cn(C2CC2)c2cc(N/N=C/c3ccccc3O)c(F)cc2c1=O | > 64 µg/mL |
| O=C(N/N=C/c1ccc2c(c1)OCO2)c1cn(C2CC2)c2cc(N3CCNCC3)c(F)cc2c1=O | > 64 µg/mL |

The next lines start with the values.

| MIC | Compound |
| --- | --- |
| 6 µg/mL (≈ 10.4 µM) | CCn1cc(C(=O)O)c(=O)c2cc(F)c(N3CCN(CC(=O)Nc4nc5c(Cl)ccc(Cl)c5s4)CC3)cc21 |
| 6 µg/mL (≈ 10 µM) | COc1c(N2CCN(CC(=O)Nc3nc4ccc(Cl)cc4s3)C(C)C2)c(F)cc2c(=O)c(C(=O)O)cn(C3CC3)c12 (stereo not drawn) |
| > 64 µg/mL | O=C(N/N=C/c1ccccc1O)c1cn(C2CC2)c2cc(N3CCNCC3)c(F)cc2c1=O |
| > 64 µg/mL | COc1cc(/C=N/NC(=O)c2cn(C3CC3)c3cc(N4CCNCC4)c(F)cc3c2=O)cc(OC)c1OC |
| 6 µg/mL (≈ 10.3 µM) | COc1c(N2CCN(CC(=O)Nc3nc4ccc(F)cc4s3)C(C)C2)c(F)cc2c(=O)c(C(=O)O)cn(C3CC3)c12 (stereo not drawn) |
| 6 µg/mL (≈ 10.8 µM) | CCn1cc(C(=O)O)c(=O)c2cc(F)c(N3CCN(CC(=O)Nc4nc5ccc([N+](=O)[O-])cc5s4)CC3)cc21 |
| > 64 µg/mL | CCN(CC)Cc1cn(-c2cc3c(cc2F)c(=O)c(C(=O)NO)cn3C2CC2)nn1 |
| > 64 µg/mL | O=C(N/N=C/c1ccccc1)c1cn(C2CC2)c2cc(N/N=C/c3ccccc3)c(F)cc2c1=O |
| 6 µg/mL (≈ 11.4 µM) | CCn1cc(C(=O)O)c(=O)c2cc(F)c(N3CCN(CC(=O)Nc4nc5ccc(F)cc5s4)CC3)cc21 |
| > 64 µg/mL | O=C(N/N=C/c1ccc([N+](=O)[O-])cc1)c1cn(C2CC2)c2cc(N3CCNCC3)c(F)cc2c1=O |
| 6 µg/mL (≈ 11 µM) | CCn1cc(C(=O)O)c(=O)c2cc(F)c(N3CCN(CC(=O)Nc4nc5ccc(Cl)cc5s4)CC3)cc21 |

What follows are molecules tested on Escherichia coli (assay: Antibacterial activity against Escherichia coli assessed as bacterial growth inhibition incubated for 18 hrs by twofold serial dilution assay).
Type: functional

| Compound | MIC |
| --- | --- |
| O=C(O)c1cn(C2CC2)c2nc(N3CCN(C/C(=N/OCc4ccccc4)c4ccoc4)CC3)c(F)cc2c1=O | 0.049 µg/mL (≈ 0.0898 µM) |
| O=C(CN1CCN(c2cc3c(cc2F)c(=O)c(C(=O)O)cn3C2CC2)CC1)c1ccoc1 | 0.049 µg/mL (≈ 0.112 µM) |
| O=C(O)c1cn(C2CC2)c2cc(N3CCN(C/C(=N/O)c4ccoc4)CC3)c(F)cc2c1=O | 0.049 µg/mL (≈ 0.108 µM) |

Now from value to molecule:

| MIC | Compound |
| --- | --- |
| 0.03 µg/mL (≈ 0.0787 µM) | O=C(O)c1cn(C2CC2)c2c(F)c(N3CCNCC(F)C3)c(F)cc2c1=O (stereo not drawn) |
| 0.03 µg/mL (≈ 0.0826 µM) | O=C(O)c1cn(C2CC2)c2c(F)c(N3CCCNCC3)c(F)cc2c1=O |
| 0.049 µg/mL (≈ 0.114 µM) | CCn1cc(C(=O)O)c(=O)c2cc(F)c(N3CCN(CC(=O)c4ccoc4)CC3)nc21 |
| 0.0075 µg/mL (≈ 0.0155 µM) | CO/N=C(/CN1CCN(c2cc3c(cc2F)c(=O)c(C(=O)O)cn3C2CC2)CC1)c1cccs1 |

Source: ChEMBL document CHEMBL5244219, “Recent developments of quinolone-based derivatives and their activities against Escherichia coli” (Eur J Med Chem, 2018)
